Results: publication PMC11877631, “Novel Nucleus-Oriented Quenched Activity-Based Probes Link Cathepsin Nuclear Localization with Mitosis” (ACS Sensors, 2025)

Experiments:
HeLa cells [1] = assay: Live cell confocal imaging and time-lapse movies; assay type: cell-based, human
Description: (§1) NIH-3T3 or HeLa cells were seeded in an 8-well coverslip chamber (Lab-Tek) at a density of 100,000 cells per well and grown at 37 °C under 5% of CO2, 24 h later, cells were treated with 2.5 μM KRSs probes for 6 h. The medium was replaced with DMEM without phenol red, and Hoechst was added to a final concentration of 5 μg/mL. Live imaging of cells using a Zeiss LSM 710 Axio Observer.Z1 with a 63/24 Oil DIC M27 lens, in Cy3 and DAPI channels, was performed over 24 h; pictures were taken every 20–25 min. The Z-stack analysis was performed using 3–5 different depths focusing on the cell nucleus; each slice was 1–1.5 μm. Image processing was performed using NIS-Elements image acquisition software, quantifying the 63× images of several experiments and calculating the average fluorescence intensity. Statistics and standard deviation were calculated by using Microsoft Excel.

[2] = biological target: Recombinant human cathepsin L (Homo sapiens, UniProt P07711); assay: Recombinant cathepsin labeling, fluorescent SDS-PAGE; assay type: binding; conditions: pH 5.5, 37 °C, probe intensities compared with KRS-D1(qAc), GB111-NH2 given as pretreatment before KRS probes
Sequence of Recombinant human cathepsin L (P07711 114-333): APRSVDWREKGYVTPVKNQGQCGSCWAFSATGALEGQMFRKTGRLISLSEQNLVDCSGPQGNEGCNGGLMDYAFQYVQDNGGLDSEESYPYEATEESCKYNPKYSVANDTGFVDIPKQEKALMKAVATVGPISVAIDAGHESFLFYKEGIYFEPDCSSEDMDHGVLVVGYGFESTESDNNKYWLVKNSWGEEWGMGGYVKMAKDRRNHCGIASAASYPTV
Description: (§2) Recombinant human cathepsins B (0.7 μg), L (0.6 μg), or S (0.7 μg) in reaction buffer (50 mM acetate, 5 mM MgCl2, 2 mM DTT, pH 5.5) was pretreated with the cathepsin inhibitor GB111-NH2 or vehicle for 30 min at room temp. Indicated concentrations of KRS probes were added to the samples for 30 min at 37 °C. The reaction was stopped by adding 4× sample buffer (40% glycerol, 0.2 M Tris/HCl 6.8, 20% β-mercaptoethanol, 12% SDS, and 0.4 mg/mL bromophenol blue). The samples were boiled and separated by a 12% SDS gel and scanned by a Typhoon laser scanner at Ex./Em. 535/570 nm for fluorescence.

[3] = biological target: Recombinant human cathepsin S (Homo sapiens, UniProt P25774); assay: as above; assay type: binding; conditions: pH 5.5, 37 °C, probe intensities compared with KRS-D1(qAc), GB111-NH2 given as pretreatment before KRS probes
Sequence of Recombinant human cathepsin S (P25774 115-331): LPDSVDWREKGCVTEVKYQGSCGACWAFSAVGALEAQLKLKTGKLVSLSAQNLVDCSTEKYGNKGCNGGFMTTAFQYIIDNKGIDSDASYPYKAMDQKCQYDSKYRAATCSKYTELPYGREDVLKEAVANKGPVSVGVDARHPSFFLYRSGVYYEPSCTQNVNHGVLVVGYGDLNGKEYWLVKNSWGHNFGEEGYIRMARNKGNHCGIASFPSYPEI
Description: as §2

[4] = biological target: Recombinant human cathepsin B (Homo sapiens, UniProt P07858); assay: as above; assay type: binding; conditions: pH 5.5, 37 °C, probe intensities compared with KRS-D1(qAc), GB111-NH2 given as pretreatment before KRS probes
Description: as §2

NIH-3T3 cells [5] = assay: Live cell confocal imaging; assay type: cell-based, mouse; conditions: NIH-3T3, 2.5 μM, 6 h; for Probe staining intensity in live cells: fluorescence microscopy; for Nuclear cathepsin labeling (confocal Z-stack, costaining with Hoechst): 63× objective
Description: as §1

[6] = Quenching efficiency (fluorescent plate reader); assay type: physicochemical; conditions: lower fluorescence than average of nonquenched probes; slope ratio; 0.013–10 μM in acetate buffer pH 5.5; Ex./Em. 535/570 nm
Description: Increasing concentrations (0.013–10 μM) of KRS (A1-F1), in acetate buffer (50 mM acetate, 5 mM MgCl2, 2 mM DTT, pH 5.5), were prepared in a 96-well plate. Fluorescence was measured and quantified using a BioRad plate reader, Ex./Em. 535/570 nm. Arbitrary fluorescent units were plotted versus probe concentration, and the ratio between the slope of each quenched probe and the average of the nonquenched probes were determined as quenching efficiency.

HeLa cells [7] = assay: Subcellular fractionation with fluorescent SDS-PAGE; assay type: cell-based, human; conditions: 2.5 μM, 6 h; for Active cathepsin in nuclear fraction: 20 μg protein per fraction
Description: Cell fractionation was performed according to the manufacturer’s instructions using the Subcellular Protein Fractionation Kit for Cultured Cells (Pierce, Thermo Fisher Scientific Inc., Rockford, IL, USA, number 78840). Lysed cells were separated into subsequent cytosol, membrane, and nuclear fractions. Extracted proteins were subjected to SDS PAGE separation and fluorescence and Western blot analysis.

[8] = biological target: T1, intracellular cathepsin B in NIH-3T3 cells (Mus musculus, UniProt P10605); assay type: cell-based; conditions: for Labeling of intracellular cathepsin B: live NIH-3T3, 6 h probe incubation, band intensity, in comparison to probes without the CPP
T1 construct: KRS probes freely penetrated the cells and labeled endogenous cathepsins in a dose-dependent manner; endogenous in cells; host or cells: NIH-3T3
T1 sequence (P10605 80-333 limits assumed): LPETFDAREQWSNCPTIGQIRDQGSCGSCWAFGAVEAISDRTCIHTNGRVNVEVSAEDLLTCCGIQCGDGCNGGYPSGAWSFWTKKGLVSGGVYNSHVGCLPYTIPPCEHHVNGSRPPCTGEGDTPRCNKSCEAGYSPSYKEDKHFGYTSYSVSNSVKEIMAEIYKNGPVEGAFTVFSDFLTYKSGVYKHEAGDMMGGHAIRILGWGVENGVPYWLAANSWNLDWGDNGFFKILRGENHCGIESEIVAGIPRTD
Description: (§3) NIH-3T3 cells (2.5 × 10^5 cells/well) were seeded in a 12-well plate 1 day prior to treatment. Cells were pretreated with inhibitor GB111-NH2 or vehicle for 30 min followed by incubation with KRS probes at indicated concentrations predissolved in 0.1% DMSO and 0.9% ethanol in a culture medium. After 6 h of probe incubation cells were washed with PBS and lysed by addition of sample buffer as described above. Lysates were boiled for 5 min, centrifuged, and separated by 12.5% SDS-PAGE. Cathepsins labeled in cells were visualized by scanning the gel with a Typhoon laser scanner at Ex./Em. 535/570 nm.

[9] = biological target: T2, intracellular cathepsin L in NIH-3T3 cells (Mus musculus, UniProt P06797); assay: Probe labeling in intact cells, fluorescent SDS-PAGE; assay type: cell-based; conditions: live NIH-3T3, 6 h probe incubation, band intensity; in comparison to probes without the CPP
T2 construct: KRS probes freely penetrated the cells and labeled endogenous cathepsins in a dose-dependent manner; endogenous in cells; host or cells: NIH-3T3
T2 sequence (P06797 114-334): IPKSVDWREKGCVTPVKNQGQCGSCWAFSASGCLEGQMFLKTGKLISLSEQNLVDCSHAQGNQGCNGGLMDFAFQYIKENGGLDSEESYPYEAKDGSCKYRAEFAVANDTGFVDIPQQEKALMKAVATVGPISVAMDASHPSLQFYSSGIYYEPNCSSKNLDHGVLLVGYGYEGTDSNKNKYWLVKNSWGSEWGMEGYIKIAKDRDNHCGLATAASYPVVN
Description: as §3

HeLa cells [10] = assay type: cell-based, human
Description: (§4) NIH-3T3 cells (2.5 × 10^5 cells/well) or HeLa cells (2.0 × 10^5 cells/well) were seeded in a 12-well plate 1 day before treatment. Cells were incubated with KRS probes at 2.5 μM predissolved in 0.1% DMSO and 0.9% ethanol in a culture medium for indicated durations. After the incubation, cells were washed with PBS and lysed by the addition of sample buffer. Samples were analyzed by fluorescent SDS-PAGE as described above.

NIH-3T3 cells [11] = assay type: cell-based, mouse
Description: as §4

HeLa cells [12] = assay: Image Streamer flow imaging, fixed cells; assay type: cell-based, human; conditions: 6 h, Draq5 stain
Description: Live or methanol fixed cells were pretreated with KRS probes at 2.5 μM for 6 h predissolved in 0.1% DMSO and 0.9% ethanol in a culture medium. After the incubation, cells were washed with PBS centrifuged and dissolved in PBS in a final volume of 50 μL. The DNA markers: Hoechst (Thermo Fisher) at a final concentration of 1 μg/mL or Draq5 (Thermo Fisher) at a final concentration of 1.5 μM were added. The samples were analyzed using an Image StreamX Flow Imager system (Merk Millipore).

| Compound | Fluorescence labeling of recombinant cathepsin L [2] | Fluorescence labeling of recombinant cathepsin S [3] | Fluorescence labeling of recombinant cathepsin B [4] | Probe staining intensity in live cells (NIH-3T3 cells [5]) | Fold quenching (quenching efficiency) [6] | Nuclear cathepsin labeling (confocal Z-stack, costaining with Hoechst) (NIH-3T3 cells [5]) | Labeling of intracellular cathepsin B [8] | Labeling of intracellular cathepsin L [9] | further results |
| --- | --- | --- | --- | --- | --- | --- | --- | --- | --- |
| Cc1cccc(C)c1C(=O)OCC(=O)[C@H](CCCCN)NC(=O)[C@H](Cc1ccccc1)NC(=O)OCc1ccccc1 [GB111-NH2, reference compound] | dramatically reduced | dramatically reduced | dramatically reduced | – | – | – | – | – | Fluorescent signal of KRS probes after inhibitor pretreatment (HeLa cells [1]; live HeLa, 2.5 μM GB111-NH2 pretreatment, then KRS-B1(qTAT) or KRS-E1(qNLS) 6 h): strongly reduced |
| Ac-Cys-Phe-Phe-Lys-(TMR-X)-AOMK-Ac [KRS-C1(Ac)] | – | – | – | relatively weak staining | – | – | – | – | – |
| Ac-Cys-Phe-Phe-Lys-(TMR-X)-AOMK-QSY7 [KRS-D1(qAc)] | – | – | – | relatively weak staining | 61 fold | did not detect cathepsins in the nucleus | – | – | – |
| NLS-Cys-Phe-Phe-Lys-(TMR-X)-AOMK-Ac [KRS-F1(NLS)] | – | – | – | intense staining | – | – | – | – | – |
| NLS-Cys-Phe-Phe-Lys-(TMR-X)-AOMK-QSY7 [KRS-E1(qNLS)] | slightly lower | slightly lower | slightly lower | intense staining | 54 fold | label nuclear cathepsins | enhanced labeling | enhanced labeling | Intensity in fractions relative to KRS-B1(qTAT) (HeLa cells [7]): weaker intensity; Active cathepsin in nuclear fraction (HeLa cells [7]): clear presence of active nuclear cathepsin; Cell permeability / cell penetration [8]: significantly greater cell penetration |
| TAT-Cys-Phe-Phe-Lys-(TMR-X)-AOMK-Ac [KRS-A1(TAT)] | – | – | – | intense staining | – | – | enhanced labeling | enhanced labeling | Permeability in time-course labeling (HeLa cells [10]): enhanced and accelerated permeability; Binding relative to the other probes ([8]; as seen in Figures 2 and 6a): strongest binding of all probes; Permeability in time-course labeling (NIH-3T3 cells [11]): enhanced and accelerated permeability |
| TAT-Cys-Phe-Phe-Lys-(TMR-X)-AOMK-QSY7 [KRS-B1(qTAT)] | slightly lower | slightly lower | slightly lower | intense staining | 66 fold | label nuclear cathepsins | enhanced labeling | enhanced labeling | Permeability in time-course labeling (HeLa cells [10]): enhanced and accelerated permeability; Effect on entry of cells to mitosis (HeLa cells [1]; HeLa, 2.5 μM, time-lapse over 22 h): inhibited the entry of cells to mitosis; Active cathepsin in nuclear fraction (HeLa cells [7]): clear presence of active nuclear cathepsin; Cell permeability / cell penetration [8]: significantly greater cell penetration; Permeability in time-course labeling (NIH-3T3 cells [11]): enhanced and accelerated permeability; Nuclear cathepsin activity (TMR-X and Draq5 similarity) (HeLa cells [12]): much higher degree |
